The values that follow come from a melting point compilation (Tetko et al.; mined from patent text by program, amines drawn as free bases though some values may be those of a salt).

One may read the melting point as the temperature, or range, at which the solid turns liquid. For `O=C(OCc1ccccc1)c1ncc(OCc2ccccc2)c(OCc2ccccc2)c1Br`, the melting point turned out to be 120 °C.
With `CCOC(=O)/C=C(\C)c1cccc([N+](=O)[O-])c1`, the melting point was in the range of 43 to 44 °C.
With `CC(C)CNC(=O)C=CCBr`, the melting point fell in the range of 94 to 95 °C.
With `CCOC(=O)c1c(-c2ccccc2C)c2cc3c(cc2[nH]c1=O)CCC3` the figure was 296 to 298 °C.
For `COc1ccc(C(=O)N[C@@H](Cc2ccc(OC(=O)c3ccc(OC)cc3)cc2)C(=O)O)cc1`, the melting point lay within 171 to 174 °C.
Compound `CCc1ccc2sc3cc(-c4nnn[nH]4)ccc3c(=O)c2c1` yielded a melting point of 247 °C.
Regarding `COc1cc(C(O)c2ccc(C(=O)N(C(C)C)C3CCCCC3)cc2)cc(OC)c1OC` (configuration not stated), the melting point was 158 to 160 °C.
To `CN(SN1CCOCC1)C(=O)Oc1cccc2c1OC(C)(C)C2` belongs 75 to 78 °C.
With `Cc1ccc(CN(C(=O)Nc2c(C(C)C)cccc2C(C)C)c2ccc(C(C)C)cc2)c(C)c1` the figure was 100 °C; with `O=C(O)C1=C(C(=O)Nc2ccc(Br)cc2F)CCCC1`, 98 to 99 °C.
With `O=C(Cn1nnc2ccccc21)Nc1ccc(-n2nc(C(F)(F)F)cc2C2CC2)cc1` the figure was 200 to 204 °C; with `CN(C)C1CCN(C2c3ccccc3Oc3ccccc32)CC1`, 92 to 93 °C.
Consider `Fc1ccc(Nc2ncnc3cnc(NC4CCC(N5CCCC5)CC4)nc23)cc1Cl` (configuration not stated), for which the melting point lay in the range of 192 to 195 °C.
With `CCc1nc2cc(N(C)C)c(Cl)cc2n1-c1ccc(CCNC(=O)NS(=O)(=O)c2ccc(C)cc2)cc1` the figure was 108 to 114 °C; with `COc1ccc(CC2COCc3nc4c(N)nc5ccccc5c4n32)cc1` (configuration not stated), 115 to 130 °C; with `CCN(C)c1ccc(Cn2nnc(-c3ccc(OC(=O)C(C)(C)C)cc3)n2)cc1`, 122 to 125 °C.
To `CC1(C)O[C@H]2[C@H](OCc3ccccc3)O[C@H](C(N)=O)[C@H]2O1` belongs 78 °C.
Compound `CCOC(=O)C1=NOC2(CCC(C3CCCCC3)CC2)C1` (configuration not stated) gave a melting point of 64 to 71 °C.
To `O=[N+]([O-])c1cccc(C#Cc2c(F)c(F)nc(F)c2F)c1` belongs 130 to 131 °C; to `COC(CNC(=S)N1CCN(c2ccc(O)cc2)CC1)OC`, 161 °C; to `CC(=O)OCC1CN(C(=O)OC(C)(C)C)c2cc(OCc3ccccc3)c3ncccc3c21` (configuration not stated), 172 to 173 °C.
With `O=C(NCCSCc1ccccc1Cl)c1c(Cl)cccc1Cl` the figure was 110 to 112 °C.
To `CCC(C)(C)Nc1c(NCc2cc(C)ccc2C)c(=O)c1=O` belongs 199 to 200 °C; to `C=CCCCn1c(=O)sc2c(=O)[nH]c(N)nc21`, 240 to 243 °C.
For `CC(=O)Oc1cc(/C=C/c2ccc(OC(=O)C(C)(C)Oc3ccc(C(=O)c4ccc(Cl)cc4)cc3)cc2)cc(OC(C)=O)c1`, the melting point lay in the range of 112 to 113 °C.
To `CCOC(=O)c1cncc(OC)c1CCCOc1cccnc1Oc1cccc(Cl)c1` belongs 82 to 83 °C; to `ClCCCn1c(Cc2ccccc2)nc2ccccc21`, 112 °C.
To `CCOc1cc(-c2ccc(S(C)(=O)=O)cc2)c(-c2ccc(F)cc2)c(C(F)(F)F)n1` belongs 168 to 170 °C; to `CCc1ccccc1S(=O)(=O)c1cc(N)c2ncccc2c1[N+](=O)[O-]`, 213 to 216 °C.
Compound `COc1ccc(CC(=O)c2ccc(F)cc2)cc1` registered a melting point of 107 to 109 °C.
With `CCCc1ccc2nc(C(F)(F)F)c(S(N)(=O)=O)n2n1` the figure was 151 to 152 °C; with `CCCn1nc(OCc2ccc3ccccc3n2)cc1C(=O)OC`, 71 to 72 °C.
With `CCOC1CCC(=O)N1S(=O)(=O)C=Cc1ccccc1` (configuration not stated) the figure was 61 to 63 °C.
To `Cc1cc(NC(=O)c2cccc(CCc3cccnc3)c2)ccc1C(C)C` belongs 143 to 144 °C.
Turning to `CCC(CC)Oc1cc(C)nc(Nc2c(C)cc(C)cc2C)c1C(=O)n1ccnc1`, the melting point lay in the range of 120 to 122 °C.
The compound `CC(C)(C)C(=O)NC1CCC(c2cc(Nc3cccc(C(F)(F)F)c3)n[nH]2)C1` (configuration not stated) had a melting point of 249 °C.
With `CCCCC(CC)COc1ccc2c(-c3ccc(CBr)cc3)c3cc(OCC(CC)CCCC)ccc3c(-c3ccc(CBr)cc3)c2c1` (configuration not stated) the figure was 105 to 107 °C; with `C=CCc1c(O)c(=O)[nH]c2ccccc2c1=O`, 174 to 175 °C.
The compound `OC1CCCN(CC(O)COc2ccc(-c3ccc(Cl)cc3)cc2)C1` (configuration not stated) showed a melting point of 95 to 97 °C.
With `COc1cc(CC(C#N)=CNc2ccccc2)cc(OC)c1C(N)=O` the figure was 288 to 290 °C.
To `Cc1ccc2c(cc(CCC(=O)O)n2S(=O)(=O)c2ccccc2)n1` belongs 88 to 92 °C; to `CC(C)c1ccc(S(=O)(=O)Nc2ncc(C(F)(F)F)cc2I)cc1`, 124 °C; to `Cc1nc(-c2cccc(Nc3ccc(I)cc3[N+](=O)[O-])c2)cs1`, 137 to 138 °C.
With `CC(C)(C)C(=O)C(=Cc1cccnc1)Oc1ccc(Cl)cc1` the figure was 74 to 76 °C; with `C[C@]1(CN2CCN(C(=O)CSc3ccc(Cl)cc3)CC2)Cn2cc([N+](=O)[O-])nc2O1`, 142 to 145 °C; with `Cc1nc(NC(=O)Nc2cccc3c2C2CCCCN2C3=O)cs1` (configuration not stated), 146 °C.
`N#CC(C#N)(OC(=O)c1ccc(Cl)cc1)c1ccc(Cl)cc1` gave a melting point of 158 to 159 °C.
To `Cc1cc(-c2cc(O)c(SCc3ccccc3)c(=O)o2)cc(C)n1` belongs 88 to 90 °C; to `O=[N+]([O-])c1cccc(-c2cccc([N+](=O)[O-])c2)c1`, 200 °C; to `Cc1ccc(Cl)cc1NC(=S)NCC(N)=O`, 162 to 164 °C.
With `COC(=O)N(C)C1CN(C(=O)Nc2ccc(OC(F)(F)F)cc2)N=C1c1ccc(O)cc1` (configuration not stated) the figure was 228 to 233 °C; with `COc1ccc(NC(=O)c2coc(Br)c2)cc1N1CCN(C)CC1`, 185 to 187 °C; with `FC(F)(F)c1cnc(-n2ccc3ccncc32)c(Cl)c1`, 88 to 90 °C.
To `CN1CC(c2ccc(S(C)(=O)=O)cc2)=C(c2ccc(F)cc2)C1=O` belongs 111 °C; to `CNc1ncnc2c1nnn2Cc1ccccc1F`, 180 to 182 °C; to `CS(=O)(=O)CCCCC(c1c(F)cccc1F)S(=O)(=O)c1ccc(Cl)cc1` (configuration not stated), 118 to 119 °C.
Turning to `CC(Cc1c[nH]c2ccccc12)(NC(=O)OC1C2CC3CC(C2)CC1C3)C(=O)NC(CC(=O)O)Cc1ccccc1` (configuration not stated), the melting point was 123 to 137 °C.
With `COc1ccc(C(=C(C=O)c2nnnn2C)c2ccc(OC)cc2)cc1` the figure was 130 to 131 °C; with `COc1ccc(C(=O)Nc2nc3ccc(N(C)C)cc3c(NCc3cccs3)c2C#N)cc1`, 163 °C.
Compound `COc1ccc(-c2cc3cc(F)c(F)cc3[nH]2)cc1NCc1ccc(C#N)cc1` yielded a melting point of 158 to 159 °C.
In the case of `Brc1ccc2c(c1)sc1cc(Br)ccc12`, the melting point fell in the range of 171 to 173 °C.
With `Cc1ccc2[nH]cc(C3C(=O)N(C)C(=O)C3c3cn(C)c4ccc(C)cc34)c2c1` (configuration not stated) the figure was 103 to 105 °C.
